{"source": "patent US11535630B2", "about": "“Apelin receptor (APJ) agonists and uses thereof” (Research Triangle Institute, priority 2015, dated 2022)", "note": "Structures can show the parent of a compound that is named as a salt."}
{"biological_target": "T1, apelin receptor (APJ) (Homo sapiens, UniProt P35414)", "T1 sequence (P35414 1-380)": "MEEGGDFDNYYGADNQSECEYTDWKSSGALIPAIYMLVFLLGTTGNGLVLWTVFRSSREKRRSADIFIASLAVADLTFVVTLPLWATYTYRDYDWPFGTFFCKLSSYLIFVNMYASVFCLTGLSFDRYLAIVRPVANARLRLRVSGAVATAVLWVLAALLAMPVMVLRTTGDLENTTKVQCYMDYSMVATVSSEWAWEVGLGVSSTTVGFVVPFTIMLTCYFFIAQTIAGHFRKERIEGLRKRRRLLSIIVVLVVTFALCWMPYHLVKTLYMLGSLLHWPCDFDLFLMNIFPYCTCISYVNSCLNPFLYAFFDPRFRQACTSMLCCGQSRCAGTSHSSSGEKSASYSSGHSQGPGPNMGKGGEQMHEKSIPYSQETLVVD", "experiment": "In vitro apelin agonist activity (methods of Giddings et al., Apelin-13 as positive control)", "type": "cell-based", "details": "EC50 (nM) Ave, in vitro apelin agonist activity, methods of Giddings et al., Apelin-13 as positive control", "excerpt": "(§1) Characterization of the Apelin Agonist Activity of the Compounds\n(§2) 1:39-47, the contents of which are hereby incorporated by reference in its entirety. Using the methods described in Giddings et al. and Apelin-13 as a positive control.", "units": {"EC50": "nM"}}
{"smiles": "O=C(C[C@H](CN1CCC(F)(F)C1)NC(=O)c1cc(-c2ccccc2C(F)(F)F)n(C2CCCC2)n1)NC1CCC1", "note": "[compound 523, (3R)-N-cyclobutyl-3-({1-cyclopentyl-5-[2-(trifluoromethyl)phenyl]-1H-pyrazol-3-yl}formamido)-4-(3,3-difluoropyrrolidin-1-yl)butanamide]", "EC50": 1210}
{"biological_target": "T1, apelin receptor (APJ)", "experiment": "In vitro apelin agonist activity (methods of Giddings et al., Apelin-13 as positive control)", "type": "cell-based", "details": "in vitro apelin agonist activity, methods of Giddings et al., Apelin-13 as positive control; read-out: EC50 (nM) Ave", "excerpt": "as §1, §2", "units": {"EC50": "nM"}}
{"smiles": "COc1cccc(OC)c1-c1cc(C(=O)N[C@@H](/C=C/c2cccnc2)CC(=O)NC2CCC2)nn1C1CCCC1", "note": "[compound 418, (3R,4E)-N-cyclobutyl-3-{[1-cyclopentyl-5-(2,6-dimethoxyphenyl)-1H-pyrazol-3-yl]formamido}-5-(pyridin-3-yl)pent-4-enamide]", "EC50": 664}
{"smiles": "O=C(C[C@H](CCNC(=O)C1CCCC1)NC(=O)c1cc(-c2ccccc2C(F)(F)F)n(C2CCCC2)n1)NC1CCC1", "note": "[compound 536, (3S)-N-cyclobutyl-3-({1-cyclopentyl-5-[2-(trifluoromethyl)phenyl]-1H-pyrazol-3-yl}formamido)-5-(cyclopentylformamido)pentanamide]", "EC50": 39}
{"smiles": "CN1CC(NC(=O)C[C@H](CCc2ccc(F)cc2)NC(=O)c2cc(-c3ccccc3C(F)(F)F)n(C3CCCC3)n2)C1", "note": "[compound 482, (3S)-3-({1-cyclopentyl-5-[2-(trifluoromethyl)phenyl]-1H-pyrazol-3-yl}formamido)-5-(4-fluorophenyl)-N-(1-methylazetidin-3-yl)pentanamide]", "EC50": 474}
{"smiles": "CC(C[C@@H](CC(=O)O)NC(=O)c1cc(-c2ccccc2C(C)(F)F)n(C2CCCC2)n1)N1C[C@H](F)[C@@H](F)C1", "note": "(some centres unmarked) [compound 595]", "EC50": 140}
{"smiles": "CN(C(=O)[C@@H](CC(=O)O)NC(=O)c1cc(-c2ccccc2C(F)(F)F)n(C2CCCC2)n1)C1CCCCC1", "note": "[compound 558, (3R)-3-[cyclohexyl(methyl)carbamoyl]-3-({1-cyclopentyl-5-[2-(trifluoromethyl)phenyl]-1H-pyrazol-3-yl}formamido)propanoic acid]", "EC50": 1170}
{"smiles": "COc1cccc(OC)c1-c1cc(C(=O)N[C@@H](Cc2ccccc2)C(=O)NC2CCC2)nn1CC(C)C", "note": "[compound 302, (2S)-N-cyclobutyl-2-{[5-(2,6-dimethoxyphenyl)-1-(2-methylpropyl)-1H-pyrazol-3-yl]formamido}-3-phenylpropanamide]", "EC50": "> 10000"}
{"smiles": "O=C(C[C@H](CCN1CCCCC1)NC(=O)c1cc(-c2ccccc2C2CC2)n(C2CCCC2)n1)NC1CCC1", "note": "[compound 413, (3S)-N-cyclobutyl-3-{[1-cyclopentyl-5-(2-cyclopropylphenyl)-1H-pyrazol-3-yl]formamido}-5-(piperidin-1-yl)pentanamide]", "EC50": 49}
{"smiles": "Cc1nnc(C[C@H](CCc2ccc(F)cc2)NC(=O)c2cc(-c3ccccc3C(F)(F)F)n(C3CCCC3)n2)[nH]1", "note": "[compound 471, 1-cyclopentyl-N-[(2S)-4-(4-fluorophenyl)-1-(5-methyl-4H-1,2,4-triazol-3-yl)butan-2-yl]-5-[2-(trifluoromethyl)phenyl]-1H-pyrazole-3-carboxamide]", "EC50": 1140}
{"smiles": "CCN(C(=O)c1cc(-c2cccs2)n(C2CCCC2)n1)[C@@H](CCN1CCCCC1)CC(=O)NC1CCC1", "note": "[compound 347]", "EC50": "> 10000"}
{"smiles": "O=C(C[C@H](CCN1CCCC1)NC(=O)c1cc(-c2ccccc2C(F)(F)F)n(C2CCCC2)n1)NC1CCC1", "note": "[compound 504, (3S)-N-cyclobutyl-3-({1-cyclopentyl-5-[2-(trifluoromethyl)phenyl]-1H-pyrazol-3-yl}formamido)-5-(pyrrolidin-1-yl)pentanamide]", "EC50": 59}
{"smiles": "CC1(C)CC(=O)CN1CC[C@@H](CC(=O)O)NC(=O)c1cc(-c2ccccc2C(F)(F)F)n(C2CCCC2)n1", "note": "[compound 608, (3S)-3-({1-cyclopentyl-5-[2-(trifluoromethyl)phenyl]-1H-pyrazol-3-yl}formamido)-5-(2,2-dimethyl-4-oxopyrrolidin-1-yl)pentanoic acid]", "EC50": 1070}
{"smiles": "O=C(N[C@@H](CCN1C[C@H](F)[C@@H](F)C1)Cc1nnn[nH]1)c1cc(-c2ccccc2C(F)(F)F)n(C2CCCC2)n1", "note": "[compound 630]", "EC50": 24}
{"smiles": "O=C(O)C[C@H](CCN1CCCC[C@H]1C(F)(F)F)NC(=O)c1cc(-c2ccccc2C(F)(F)F)n(C2CCCC2)n1", "note": "[compound 487, (3S)-3-({1-cyclopentyl-5-[2-(trifluoromethyl)phenyl]-1H-pyrazol-3-yl}formamido)-5-[(2S)-2-(trifluoromethyl)piperidin-1-yl]pentanoic acid]", "EC50": 277}
{"smiles": "O=C(C[C@H](CCN1CCCC(F)(F)C1)NC(=O)c1cc(-c2ccccc2C(F)(F)F)n(C2CCCC2)n1)NS(=O)(=O)C(F)(F)F", "note": "[compound 529, (3S)-3-({1-cyclopentyl-5-[2-(trifluoromethyl)phenyl]-1H-pyrazol-3-yl}formamido)-5-(3,3-difluoropiperidin-1-yl)-N-(trifluoromethane)sulfonylpentanamide]", "EC50": 134}
{"smiles": "O=C(C[C@H](CCN1CCCC(F)(F)C1)NC(=O)c1cc(-c2ccccc2Cl)n(C2CCCC2)n1)Nc1nccs1", "note": "[compound 429, (3S)-3-{[5-(2-chlorophenyl)-1-cyclopentyl-1H-pyrazol-3-yl]formamido}-5-(3,3-difluoropiperidin-1-yl)-N-(1,3-thiazol-2-yl)pentanamide]", "EC50": 6.1}
{"smiles": "C[C@@H]1CC(F)(F)CN1CC[C@@H](CC(=O)O)NC(=O)c1cc(-c2ccccc2C(C)(F)F)n(C2CCCC2)n1", "note": "[compound 605, (3S)-3-({1-cyclopentyl-5-[2-(1,1-difluoroethyl)phenyl]-1H-pyrazol-3-yl]formamido)-5-[(2R)-4,4-difluoro-2-methylpyrrolidin-1-yl]pentanoic acid]", "EC50": 11}
{"smiles": "O=C(O)C[C@H](CCN1CCOCC1)NC(=O)c1cc(-c2ccccc2C(F)(F)F)n(C2CCCC2)n1", "note": "[compound 486, (3S)-3-({1-cyclopentyl-5-[2-(trifluoromethyl)phenyl]-1H-pyrazol-3-yl}formamido)-5-(morpholin-4-yl)pentanoic acid]", "EC50": 931}
{"smiles": "CC(F)(F)c1ccccc1-c1cc(C(=O)N[C@@H](CCN2CCC(F)(F)C2)CC(=O)O)nn1C1CCCC1", "note": "[compound 537, (3S)-3-({1-cyclopentyl-5-[2-(1,1-difluoroethyl)phenyl]-1H-pyrazol-3-yl}formamido)-5-(3,3-difluoropyrrolidin-1-yl)pentanoic acid]", "EC50": 16}
{"smiles": "COc1cccc(OC)c1-c1cc(C(=O)N[C@@H](CC2CCC2)C(=O)O)nn1C1CCCC1", "note": "[compound 386, (2S)-3-cyclobutyl-2-{[1-cyclopentyl-5-(2,6-dimethoxyphenyl)-1H-pyrazol-3-yl]formamido}propanoic acid]", "EC50": 6170}
{"smiles": "CC1(F)CCCN(CC[C@@H](CC(=O)O)NC(=O)c2cc(-c3ccccc3C(F)(F)F)n(C3CCCC3)n2)C1", "note": "(stereo partly drawn) [compound 613, (3S)-3-({1-cyclopentyl-5-[2-(trifluoromethyl)phenyl]-1H-pyrazol-3-yl}formamido)-5-(3-fluoro-3-methylpiperidin-1-yl)pentanoic acid trifluoroacetate]", "EC50": 104}
{"smiles": "NNC(=O)C[C@H](CCN1CCCC(F)(F)C1)NC(=O)c1cc(-c2ccccc2Cl)n(C2CCCC2)n1", "note": "[compound 465, 5-(2-chlorophenyl)-1-cyclopentyl-N-[(2S)-4-(3,3-difluoropiperidin-1-yl)-1-(hydrazinecarbonyl)butan-2-yl]-1H-pyrazole-3-carboxamide]", "EC50": 191}
{"smiles": "O=C(O)C[C@H](CCC1CCCCC1)NC(=O)c1cc(-c2ccccc2C(F)(F)F)n(C2CCCC2)n1", "note": "[compound 484, (3S)-5-cyclohexyl-3-({1-cyclopentyl-5-[2-(trifluoromethyl)phenyl]-1H-pyrazol-3-yl}formamido)pentanoic acid]", "EC50": 1520}
{"smiles": "O=C(C[C@H](CCN1CCCCC1)NC(=O)c1cc(-c2ccc(F)cc2OCC(F)(F)F)n(C2CCCC2)n1)NC1CCC1", "note": "[compound 366, (3S)-N-cyclobutyl-3-({1-cyclopentyl-5[4-fluoro-2-(2,2,2-trifluoroethoxy)phenyl]-1H-pyrazol-3-yl]formamido)-5-(piperidin-1-yl)pentanamide]", "EC50": "> 10000"}
{"smiles": "COc1cccc(OC)c1-c1cc(C(=O)N[C@@H](CCN2CCCCCC2)CC(=O)NC2CCC2)nn1C1CCCC1", "note": "[compound 324, (3S)-5-(azepan-1-yl)-N-cyclobutyl-3-{[1-cyclopentyl-5-(2,6-dimethoxyphenyl)-1H-pyrazol-3-yl]formamido}pentanamide]", "EC50": 107}
{"smiles": "COc1cccc(OC)c1-c1cc(C(=O)N[C@@H](CCNCc2ccncc2)CC(=O)O)nn1C1CCCC1", "note": "[compound 310, (3S)-3-{[1-cyclopentyl-5-(2,6-dimethoxyphenyl)-1H-pyrazol-3-yl]formamido}-5-[(pyridin-4-ylmethyl)amino]pentanoic acid]", "EC50": "> 10000"}
{"smiles": "COc1cccc(OC)c1-c1cc(C(=O)N[C@@H](CCN2CCCCC2)CC(=O)NC2CCC2)nn1C1CCCCC1C", "note": "(stereo partly drawn) [compound 356, (3S)-N-cyclobutyl-3-{[5-(2,6-dimethoxyphenyl)-1-(2-methylcyclohexyl)-1H-pyrazol-3-yl]formamido}-5-(piperidin-1-yl)pentanamide]", "EC50": "> 10000"}
{"smiles": "COc1cccc(OC)c1-c1cc(C(=O)N[C@@H](CCN2CCOCC2)CC(=O)OC(C)(C)C)nn1C1CCCC1", "note": "[compound 303, tert-butyl (3S)-3-{[1-cyclopentyl-5-(2,6-dimethoxyphenyl)-1H-pyrazol-3-yl]formamido}-5-(morpholin-4-yl)pentanoate]", "EC50": "> 10000"}
{"smiles": "COc1cccc(OC)c1-c1cc(C(=O)N[C@@H](CCC2CCCCC2)CC(=O)O)nn1CC1CCCCC1", "note": "[compound 648]", "EC50": "> 10000"}
